# According to EP4741386A1 (Jiangsu Yahong Meditech Co., Ltd., priority 2023, dated 2025):
# Tests used:
# [1] = target: T1, Recombinant human His6-USP1/His6-UAF1 complex protein (Homo sapiens, UniProt O94782); test: In vitro inhibitory activity against USP1 (Ubiquitin Rhodamine 110 fluorescence detection, 384-well plate); format: biochemical; settings: Ub-Rho substrate, 1 hour pre-incubation, read after 30 minutes
# T1 construct: His6; purchased R&D E-568-050
# In short: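 Compounds, kept as 50 mM DMSO stocks, were acoustically dispensed into modified Tris buffer. Inhibition of recombinant human His6-USP1/His6-UAF1 was read by fluorescence from cleavage of Ub-Rho110 substrate.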
# MDA-MB-436 = test: CTG experiment for cell viability (CellTiter-Glo, 96-well plate, 7 days); format: cell-based; settings: Homo sapiens, MDA-MB-436, 168 h, MDA-MB-436 cells, 7 days culture with compound
# In short: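 Viability was read by CellTiter-Glo luminescence after 10 min at room temperature, once the compound-containing medium had been replaced with PBS. Before that, MDA-MB-436 cells grown in DMEM were exposed to compounds for 7 days at 37°C. Curve fitting followed the enzyme assay method.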
# T1 sequence (O94782 whole entry): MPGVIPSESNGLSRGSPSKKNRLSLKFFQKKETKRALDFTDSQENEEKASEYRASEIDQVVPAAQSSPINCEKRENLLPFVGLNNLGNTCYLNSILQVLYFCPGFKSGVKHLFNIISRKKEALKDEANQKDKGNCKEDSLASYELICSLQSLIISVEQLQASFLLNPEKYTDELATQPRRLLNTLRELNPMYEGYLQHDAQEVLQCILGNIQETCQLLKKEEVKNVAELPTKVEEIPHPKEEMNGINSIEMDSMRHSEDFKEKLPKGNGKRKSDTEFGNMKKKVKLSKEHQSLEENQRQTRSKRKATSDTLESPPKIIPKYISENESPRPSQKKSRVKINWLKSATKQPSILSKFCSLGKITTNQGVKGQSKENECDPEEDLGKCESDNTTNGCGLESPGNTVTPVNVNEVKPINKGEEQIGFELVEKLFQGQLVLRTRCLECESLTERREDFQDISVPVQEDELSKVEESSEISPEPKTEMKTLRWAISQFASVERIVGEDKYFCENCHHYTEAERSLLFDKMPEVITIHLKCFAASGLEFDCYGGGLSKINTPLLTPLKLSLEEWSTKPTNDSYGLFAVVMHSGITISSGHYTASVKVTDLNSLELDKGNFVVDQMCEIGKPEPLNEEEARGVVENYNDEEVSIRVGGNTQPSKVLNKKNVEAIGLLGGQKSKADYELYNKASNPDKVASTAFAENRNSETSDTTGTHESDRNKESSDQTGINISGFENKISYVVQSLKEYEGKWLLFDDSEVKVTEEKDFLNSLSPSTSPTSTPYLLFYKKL
# T1 sequence (Q8TAF3 whole entry partner): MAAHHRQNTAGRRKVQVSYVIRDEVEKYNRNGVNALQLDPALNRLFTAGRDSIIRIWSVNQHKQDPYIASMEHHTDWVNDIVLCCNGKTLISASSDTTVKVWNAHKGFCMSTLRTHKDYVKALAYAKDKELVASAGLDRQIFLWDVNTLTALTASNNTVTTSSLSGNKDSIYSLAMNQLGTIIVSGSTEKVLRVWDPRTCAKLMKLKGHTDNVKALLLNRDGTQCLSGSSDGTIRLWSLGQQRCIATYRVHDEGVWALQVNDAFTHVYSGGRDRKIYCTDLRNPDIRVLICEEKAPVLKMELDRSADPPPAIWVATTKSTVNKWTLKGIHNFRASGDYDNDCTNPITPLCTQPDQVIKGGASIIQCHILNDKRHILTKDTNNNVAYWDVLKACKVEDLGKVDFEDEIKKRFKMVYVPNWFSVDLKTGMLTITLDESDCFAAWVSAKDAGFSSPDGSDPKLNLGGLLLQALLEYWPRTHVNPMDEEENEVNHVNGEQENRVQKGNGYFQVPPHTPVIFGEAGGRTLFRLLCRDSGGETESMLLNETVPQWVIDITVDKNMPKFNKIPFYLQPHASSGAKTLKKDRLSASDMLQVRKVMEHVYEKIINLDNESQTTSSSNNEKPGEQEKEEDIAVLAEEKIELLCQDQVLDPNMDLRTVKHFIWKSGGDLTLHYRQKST
IC50 [1],IC50 (MDA-MB-436),Structure (SMILES)
3.4 nM,25.4 nM,"COc1cnc(-c2cccnc2C2CC2)nc1NCc1ccc(-c2nc(C(F)(F)F)cn2C)cc1 [Example 153, 2-(2-Cyclopropylpyridin-3-yl)-5-methoxy-N-(4-(1-methyl-4-(trifluoromethyl)-1H-imidazol-2-yl)benzyl)pyrimidin-4-amine]"
6.2 nM,7.3 nM,"COc1cnc(-c2cccnc2C2CC2)nc1NCc1ccc(-n2nc(C(F)(F)F)cc2C)cc1 [Example 154, 2-(2-Cyclopropylpyridin-3-yl)-5-methoxy-N-(4-(5-methyl-3-(trifluoromethyl)-1H-pyrazol-1-yl)benzyl)pyrimidin-4-amine]"
12 nM,85.7 nM,"c1ccc(-c2ccc(CNc3nc(-c4cccnc4C4CC4)nc4ccoc34)cc2)nc1 [Example 155, 2-(2-Cyclopropylpyridin-3-yl)-N-(4-(pyridin-2-yl)benzyl)furo[3,2-d]pyrimidin-4-amine]"
2.9 nM,23.3 nM,"COc1cnc(-c2cccnc2C(C)C)nc1NCc1ccc(-c2nc(C(F)(F)F)cn2C)cc1 [Example 157, 2-(2-Isopropylpyridin-3-yl)-5-methoxy-N-(4-(1-methyl-4-(trifluoromethyl)-1H-imidazol-2-yl)benzyl)pyrimidin-4-amine]"
2.1 nM,12.3 nM,"COc1cnc(-c2cccnc2C(C)C)nc1NCc1ccc(-n2nc(C(F)(F)F)cc2C)cc1 [Example 158, 2-(2-Isopropylpyridin-3-yl)-5-methoxy-N-(4-(5-methyl-3-(trifluoromethyl)-1H-pyrazol-1-yl)benzyl)pyrimidin-4-amine]"
1.7 nM,39.4 nM,"COc1cnc(-c2ccccc2N(C)C)nc1NCc1ccc(-c2nc(C(F)(F)F)cn2C)cc1 [Example 159, 2-(2-(Dimethylamino)phenyl)-5-methoxy-N-(4-(1-methyl-4-(trifluoromethyl)-1H-imidazol-2-yl)benzyl)pyrimidin-4-amine]"
3.6 nM,121 nM,"COc1cnc(-c2ccccc2N(C)C)nc1NCc1ccc(-n2nc(C(F)(F)F)cc2C)cc1 [Example 160, 2-(2-(Dimethylamino)phenyl)-5-methoxy-N-(4-(5-methyl-3-(trifluoromethyl)-1H-pyrazol-1-yl)benzyl)pyrimidin-4-amine]"
6 nM,537 nM,"COc1cnc(-c2c(Cl)cnn2C(C)C)nc1N(C)CC1CCN(c2ccccn2)CC1 [Example 161, 2-(4-Chloro-1-isopropyl-1H-pyrazol-5-yl)-5-methoxy-N-methyl-N-((1-(pyridin-2-yl)piperidin-4-yl)methyl)pyrimidin-4-amine]"
3.9 nM,77.5 nM,"COc1cnc(-c2c(Cl)cnn2C(C)C)nc1NCc1ccc(-c2ccccn2)cc1 [Example 162, 2-(4-Chloro-1-isopropyl-1H-pyrazol-5-yl)-5-methoxy-N-(4-(pyridin-2-yl)benzyl)pyrimidin-4-amine]"
2.3 nM,13.5 nM,"COc1cnc(-c2c(Cl)cnn2C(C)C)nc1NCC1CCN(c2nc(C(F)(F)F)cn2C)CC1 [Example 163, 2-(4-Chloro-1-isopropyl-1H-pyrazol-5-yl)-5-methoxy-N-((1-(1-methyl-4-(trifluoromethyl)-1H-imidazol-2-yl)piperidin-4-yl)methyl)pyrimidin-4-amine]"
1.1 nM,0.8 nM,"COc1cnc(-c2c(Cl)cnn2C(C)C)nc1NCc1ccc(-c2nc(C(F)(F)F)cn2C)cc1 [Example 164, 2-(4-Chloro-1-isopropyl-1H-pyrazol-5-yl)-5-methoxy-N-(4-(1-methyl-4-(trifluoromethyl)-1H-imidazol-2-yl)benzyl)pyrimidin-4-amine]"
1.4 nM,7.1 nM,"COc1cnc(-c2c(Cl)cnn2C(C)C)nc1NCc1ccc(-n2nc(C(F)(F)F)cc2C)cc1 [Example 165, 2-(4-Chloro-1-isopropyl-1H-pyrazol-5-yl)-5-methoxy-N-(4-(5-methyl-3-(trifluoromethyl)-1H-pyrazol-1-yl)benzyl)pyrimidin-4-amine]"
2.1 nM,41.4 nM,"CC(C)n1ncc(Cl)c1-c1nc(NCc2ccc(-c3ccccn3)cc2)c2occc2n1 [Example 166, 2-(4-Chloro-1-isopropyl-1H-pyrazol-5-yl)-N-(4-(pyridin-2-yl)benzyl)furo[3,2-d]pyrimidin-4-amine]"
0.45 nM,2.9 nM,"CC(C)n1ncc(Cl)c1-c1nc(NCc2ccc(-c3nc(C(F)(F)F)cn3C)cc2)c2occc2n1 [Example 167, 2-(4-Chloro-1-isopropyl-1H-pyrazol-5-yl)-N-(4-(1-methyl-4-(trifluoromethyl)-1H-imidazol-2-yl)benzyl)furo[3,2-d]pyrimidin-4-amine]"
1.2 nM,5.1 nM,"Cc1cc(C(F)(F)F)nn1-c1ccc(CNc2nc(-c3c(Cl)cnn3C(C)C)nc3ccoc23)cc1 [Example 168, 2-(4-Chloro-1-isopropyl-1H-pyrazol-5-yl)-N-(4-(5-methyl-3-(trifluoromethyl)-1H-pyrazol-1-yl)benzyl)furo[3,2-d]pyrimidin-4-amine]"
0.8 nM,0.4 nM,"COc1cnc(-c2ccccc2C2CC2)nc1NCc1ccc(-c2nc(C(F)(F)F)cn2C)cc1 [Example 169, 2-(2-Cyclopropylphenyl)-5-methoxy-N-(4-(1-methyl-4-(trifluoromethyl)-1H-imidazol-2-yl)benzyl)pyrimidin-4-amine]"
2.9 nM,14.5 nM,"COc1cnc(-c2ccccc2C2CC2)nc1NCc1ccc(-n2nc(C(F)(F)F)cc2C)cc1 [Example 170, 2-(2-Cyclopropylphenyl)-5-methoxy-N-(4-(5-methyl-3-(trifluoromethyl)-1H-pyrazol-1-yl)benzyl)pyrimidin-4-amine]"
2.3 nM,84.7 nM,"COc1cc(-c2nc(C(F)(F)F)cn2C)ccc1CNc1nc(-c2ccccc2C2CC2)ncc1OC [Example 171, 2-(2-Cyclopropylphenyl)-5-methoxy-N-(2-methoxy-4-(1-methyl-4-(trifluoromethyl)-1H-imidazol-2-yl)benzyl)pyrimidin-4-amine]"
12 nM,954 nM,"COc1cc(CNc2nc(-c3ccccc3C3CC3)ncc2OC)ccc1-c1nc(C(F)(F)F)cn1C [Example 172, 2-(2-Cyclopropylphenyl)-5-methoxy-N-(3-methoxy-4-(1-methyl-4-(trifluoromethyl)-1H-imidazol-2-yl)benzyl)pyrimidin-4-amine]"
1 nM,23.6 nM,"Cn1cc(C(F)(F)F)nc1-c1ccc(CNc2nc(-c3ccccc3C3CC3)nc3ccoc23)cc1 [Example 173, 2-(2-Cyclopropylphenyl)-N-(4-(1-methyl-4-(trifluoromethyl)-1H-imidazol-2-yl)benzyl)furo[3,2-d]pyrimidin-4-amine]"
5.1 nM,43.7 nM,"Cc1cc(C(F)(F)F)nn1-c1ccc(CNc2nc(-c3ccccc3C3CC3)nc3ccoc23)cc1 [Example 174, 2-(2-Cyclopropylphenyl)-N-(4-(5-methyl-3-(trifluoromethyl)-1H-pyrazol-1-yl)benzyl)furo[3,2-d]pyrimidin-4-amine]"
3.6 nM,87.1 nM,"COc1cc(-c2nc(C(F)(F)F)cn2C)ccc1CNc1nc(-c2ccccc2C2CC2)nc2ccoc12 [Example 175, 2-(2-Cyclopropylphenyl)-N-(2-methoxy-4-(1-methyl-4-(trifluoromethyl)-1H-imidazol-2-yl)benzyl)furo[3,2-d]pyrimidin-4-amine]"
4 nM,187 nM,"COc1cc(CNc2nc(-c3ccccc3C3CC3)nc3ccoc23)ccc1-c1nc(C(F)(F)F)cn1C [Example 176, 2-(2-Cyclopropylphenyl)-N-(3-methoxy-4-(1-methyl-4-(trifluoromethyl)-1H-imidazol-2-yl)benzyl)furo[3,2-d]pyrimidin-4-amine]"
56 nM,197 nM,"COc1cnc(-c2c(OC)cnn2C(C)C)nc1NCC1CCN(c2nc(C(F)(F)F)cn2C)CC1 [Example 179, 2-(1-Isopropyl-4-methoxy-1H-pyrazol-5-yl)-5-methoxy-N-((1-(1-methyl-4-(trifluoromcthyl)-1H-imidazol-2-yl)piperidin-4-yl)methyl)pyrimidin-4-amine]"
15 nM,123 nM,"COc1cnc(-c2c(OC)cnn2C(C)C)nc1NCc1ccc(-c2nc(C(F)(F)F)cn2C)cc1 [Example 180, 2-(1-Isopropyl-4-methoxy-1H-pyrazol-5-yl)-5-methoxy-N-(4-(1-methyl-4-(trifluoromethyl)-1H-imidazol-2-yl)benzyl)pyrimidin-4-amine]"
7.4 nM,6 nM,"COc1cnn(C(C)C)c1-c1nc(NCc2ccc(-n3nc(C(F)(F)F)cc3C)cc2)c2occc2n1 [Example 182, 2-(1-Isopropyl-4-methoxy-1H-pyrazol-5-yl)-N-(4-(5-methyl-3-(trifluoromethyl)-1H-pyrazol-1-yl)benzyl)furo[3,2-d]pyrimidin-4-amine]"
9.8 nM,120 nM,"COc1cnn(C2CC2)c1-c1ncc(OC(F)F)c(NCc2ccc(-c3nc(C(F)(F)F)cn3C)cc2)n1 [Example 185, 2-(1-Cyclopropyl-4-methoxy-1H-pyrazol-5-yl)-5-(difluoromethoxy)-N-(4-(1-methyl-4-(trifluoromethyl)-1H-imidazol-2-yl)benzyl)pyrimidin-4-amine]"
16 nM,307 nM,"Cc1noc(C(C)C)c1-c1nc(NCc2ccc(-c3ccccn3)cc2)c2occc2n1 [Example 189, 2-(5-Isopropyl-3-methylisoxazol-4-yl)-N-(4-(pyridin-2-yl)benzyl)furo[3,2-d]pyrimidin-4-amine]"
